{
  "source": "patent US20260256792A1",
  "about": "“TREATMENT OF CHRONIC SPONTANEOUS URTICARIA BY ADMINISTERING (R)-2-[3-[4-AMINO-3-(2-FLUORO-4-PHENOXY-PHENYL)PYRAZOLO[3,4-D]PYRIMIDIN-1-YL]PIPERIDINE-1-CARBONYL]-4-METHYL-4-[4-(OXETAN-3-YL)PIPERAZIN-1-YL]PENT-2-ENENITRILE” (priority 2023, published 2026)",
  "test_system": "angioedema in CSU patients",
  "assay": "Phase 2 CSU study: angioedema activity score over 7 days (AAS7)",
  "format": "in vivo, human",
  "set-up": "AAS7, Median / AAS7 Change from baseline, Median: scale not given here",
  "from_the_text": "The study comprises a 12 week, randomized, double-blind, placebo-controlled, multi-center, dose-ranging efficacy and safety phase, followed by a 40 week open label extension (OLE) phase (see FIG. 1). The study consists of three phases and an optional OLE phase. […] The weekly angioedema activity score (AAS7) was proposed as a tertiary endpoint. […] Patients were to complete the AAS using the e-diary. The e-diary was to be used once daily on the same time of each day recording of participant's answers to the angioedema activity score over 7 days (AAS7) questionnaire.",
  "key": {"[1]": {"settings": "400 mg TID, Week 12, omalizumab-naïve, angioedema at baseline"}, "[2]": {"settings": "400 mg TID, omalizumab-naïve population, angioedema at baseline"}, "[3]": {"settings": "End of Study, 400 mg TID, Incomplete Responders with angioedema at baseline, both values imputed"}, "[4]": {"settings": "Omalizumab-Naïve Population, 400 mg BID, End of Study"}, "[5]": {"settings": "Omalizumab-Naïve Population, 400 mg BID, Week 1"}, "[6]": {"settings": "Omalizumab-Naïve Population, 400 mg BID, Week 2"}, "[7]": {"settings": "Omalizumab-Naïve Population, 400 mg BID, Week 3"}, "[8]": {"settings": "Omalizumab-Naïve Population, 400 mg BID, Week 4"}, "[9]": {"settings": "Omalizumab-Naïve Population, 400 mg BID, Week 5"}, "[10]": {"settings": "Omalizumab-Naïve Population, 400 mg BID, Week 6"}, "[11]": {"settings": "Omalizumab-Naïve Population, 400 mg BID, Week 7"}, "[12]": {"settings": "Omalizumab-Naïve Population, 400 mg BID, Week 8"}, "[13]": {"settings": "Omalizumab-Naïve Population, 400 mg BID, Week 9"}},
  "data": [
    {"smiles": "CC(C)(C=C(C#N)C(=O)N1CCC[C@@H](n2nc(-c3ccc(Oc4ccccc4)cc3F)c3c(N)ncnc32)C1)N1CCN(C2COC2)CC1", "note": "[rilzabrutinib, (R)-2-[3-[4-amino-3-(2-fluoro-4-phenoxy-phenyl)pyrazolo[3,4-d]pyrimidin-1-yl]piperidine-1-carbonyl]-4-methyl-4-[4-(oxetan-3-yl)piperazin-1-yl]pent-2-enenitrile]", "values": [
      {"measurement": "AAS7 Post-baseline Mean (SD)", "setting": "[1]", "result": "7.10 (12.86)"},
      {"measurement": "Participants with AAS7 = 0, Responder n (%)", "setting": "[1]", "result": "14 (60.9) n (%)"},
      {"measurement": "LS mean change from baseline in AAS7 at Week 12", "setting": "[2]", "result": "−44.04"},
      {"measurement": "decrease from baseline in AAS7 at Week 12", "setting": "[2]", "result": 84.63, "unit": "%"},
      {"measurement": "patients achieving angioedema score (AAS7) of 0", "setting": "400 mg TID, within one week of initiating treatment, omalizumab-naïve", "result": 30.4, "unit": "%"},
      {"measurement": "AAS7, Mean (SD)", "setting": "[3]", "result": "30.42 (14.73)"},
      {"measurement": "AAS7, Median", "setting": "[3]", "result": 30.42},
      {"measurement": "AAS7 Change from baseline, Mean (SD)", "setting": "[3]", "result": "1.50 (2.12)"},
      {"measurement": "AAS7 Change from baseline, Median", "setting": "[3]", "result": 1.50},
      {"measurement": "AAS7 Percent change from baseline, Median", "setting": "[3]", "result": 8.82},
      {"measurement": "AAS7, Mean (SD)", "setting": "[4]", "result": "27.33 (24.01)"},
      {"measurement": "AAS7, Median", "setting": "[4]", "result": 37.00},
      {"measurement": "AAS7 Change from baseline, Mean (SD)", "setting": "[4]", "result": "−38.33 (25.03)"},
      {"measurement": "AAS7 Change from baseline, Median", "setting": "[4]", "result": "−37.00"},
      {"measurement": "AAS7 Percent change from baseline, Mean (SD)", "setting": "[4]", "result": "−57.91 (38.75) %"},
      {"measurement": "AAS7 Percent change from baseline, Median", "setting": "[4]", "result": "−50.00", "unit": "%"},
      {"measurement": "AAS7 Change from baseline, Mean (SD)", "setting": "[5]", "result": "−21.44 (18.46)"},
      {"measurement": "AAS7 Change from baseline, Median", "setting": "[5]", "result": "−22.00"},
      {"measurement": "AAS7 Percent change from baseline, Mean (SD)", "setting": "[5]", "result": "62.04 (42.40) %"},
      {"measurement": "AAS7 Percent change from baseline, Median", "setting": "[5]", "result": "−82.71", "unit": "%"},
      {"measurement": "AAS7, Median", "setting": "[6]", "result": 14.00},
      {"measurement": "AAS7 Change from baseline, Mean (SD)", "setting": "[6]", "result": "−22.60 (18.31)"},
      {"measurement": "AAS7 Change from baseline, Median", "setting": "[6]", "result": "−23.00"},
      {"measurement": "AAS7 Percent change from baseline, Mean (SD)", "setting": "[6]", "result": "−45.07 (90.72) %"},
      {"measurement": "AAS7 Percent change from baseline, Median", "setting": "[6]", "result": "−77.03", "unit": "%"},
      {"measurement": "AAS7, Median", "setting": "[7]", "result": 6.50},
      {"measurement": "AAS7 Change from baseline, Mean (SD)", "setting": "[7]", "result": "−30.63 (24.46)"},
      {"measurement": "AAS7 Change from baseline, Median", "setting": "[7]", "result": "−25.88"},
      {"measurement": "AAS7 Percent change from baseline, Mean (SD)", "setting": "[7]", "result": "−45.93 (125.55) %"},
      {"measurement": "AAS7 Percent change from baseline, Median", "setting": "[7]", "result": "−89.45", "unit": "%"},
      {"measurement": "AAS7 Change from baseline, Mean (SD)", "setting": "[8]", "result": "−30.05 (20.80)"},
      {"measurement": "AAS7 Change from baseline, Median", "setting": "[8]", "result": "−28.00"},
      {"measurement": "AAS7 Percent change from baseline, Mean (SD)", "setting": "[8]", "result": "−53.69 (109.03) %"},
      {"measurement": "AAS7 Percent change from baseline, Median", "setting": "[8]", "result": "−82.09", "unit": "%"},
      {"measurement": "AAS7, Median", "setting": "[9]", "result": 0.00},
      {"measurement": "AAS7 Change from baseline, Mean (SD)", "setting": "[9]", "result": "−30.86 (24.37)"},
      {"measurement": "AAS7 Change from baseline, Median", "setting": "[9]", "result": "−24.00"},
      {"measurement": "AAS7 Percent change from baseline, Mean (SD)", "setting": "[9]", "result": "−66.40 (54.16) %"},
      {"measurement": "AAS7 Percent change from baseline, Median", "setting": "[9]", "result": "−100.00", "unit": "%"},
      {"measurement": "AAS7, Median", "setting": "[10]", "result": 3.00},
      {"measurement": "AAS7 Change from baseline, Mean (SD)", "setting": "[10]", "result": "−31.58 (23.39)"},
      {"measurement": "AAS7 Change from baseline, Median", "setting": "[10]", "result": "−24.00"},
      {"measurement": "AAS7 Percent change from baseline, Mean (SD)", "setting": "[10]", "result": "−70.72 (39.56) %"},
      {"measurement": "AAS7 Percent change from baseline, Median", "setting": "[10]", "result": "−92.19", "unit": "%"},
      {"measurement": "AAS7, Median", "setting": "[11]", "result": 4.67},
      {"measurement": "AAS7 Change from baseline, Mean (SD)", "setting": "[11]", "result": "−33.54 (24.64)"},
      {"measurement": "AAS7 Change from baseline, Median", "setting": "[11]", "result": "−30.00"},
      {"measurement": "AAS7 Percent change from baseline, Mean (SD)", "setting": "[11]", "result": "−68.05 (40.33) %"},
      {"measurement": "AAS7 Percent change from baseline, Median", "setting": "[11]", "result": "−88.60", "unit": "%"},
      {"measurement": "AAS7, Median", "setting": "[12]", "result": 0.00},
      {"measurement": "AAS7 Change from baseline, Mean (SD)", "setting": "[12]", "result": "−36.21 (24.67)"},
      {"measurement": "AAS7 Change from baseline, Median", "setting": "[12]", "result": "−32.00"},
      {"measurement": "AAS7 Percent change from baseline, Mean (SD)", "setting": "[12]", "result": "−74.90 (43.31) %"},
      {"measurement": "AAS7 Percent change from baseline, Median", "setting": "[12]", "result": "−100.00", "unit": "%"},
      {"measurement": "AAS7, Median", "setting": "[13]", "result": 0.00},
      {"measurement": "AAS7 Change from baseline, Mean (SD)", "setting": "[13]", "result": "−34.83 (26.07)"},
      {"measurement": "AAS7 Change from baseline, Median", "setting": "[13]", "result": "−32.00"},
      {"measurement": "AAS7 Percent change from baseline, Mean (SD)", "setting": "[13]", "result": "−67.10 (66.88) %"},
      {"measurement": "AAS7 Percent change from baseline, Median", "setting": "[13]", "result": "−100.00", "unit": "%"}
    ]}
  ]
}
